Test results from ChEMBL document CHEMBL3046791, “Design and synthesis of 2-quinolones as antioxidants and antimicrobials: a rational approach” (Med Chem Res, 2010).

Legend:
[1] = Partition coefficient, log P of the compound; assay type: physicochemical; conditions: octanol/water
Bacillus subtilis [2] = assay: Antibacterial activity against Bacillus subtilis at 500 ug/0.1 mL after 24 hr by agar diffusion method; assay type: functional
Staphylococcus aureus [3] = assay: Antibacterial activity against Staphylococcus aureus at 500 ug/0.1 mL after 24 hr by agar diffusion method; assay type: functional
Escherichia coli [4] = assay: Antibacterial activity against Escherichia coli at 500 ug/0.1 mL after 24 hr by agar diffusion method; assay type: functional
Pseudomonas aeruginosa [5] = assay: Antibacterial activity against Pseudomonas aeruginosa at 500 ug/0.1 mL after 24 hr by agar diffusion method; assay type: functional
Bacillus subtilis [6] = assay: Antibacterial activity against Bacillus subtilis at 10 ug/0.1 mL after 24 hr by agar diffusion method; assay type: functional
Staphylococcus aureus [7] = assay: Antibacterial activity against Staphylococcus aureus at 10 ug/0.1 mL after 24 hr by agar diffusion method; assay type: functional
Escherichia coli [8] = assay: Antibacterial activity against Escherichia coli at 10 ug/0.1 mL after 24 hr by agar diffusion method; assay type: functional
Pseudomonas aeruginosa [9] = assay: Antibacterial activity against Pseudomonas aeruginosa at 10 ug/0.1 mL after 24 hr by agar diffusion method; assay type: functional

logP [1] | Compound | inhibition zone (IZ) (Bacillus subtilis [2]) | inhibition zone (IZ) (Staphylococcus aureus [3]) | inhibition zone (IZ) (Escherichia coli [4]) | other results
0.995 | CC(=O)Nc1ccc2c(C)cc(=O)[nH]c2c1 | 13 mm | 11 mm |  | 
1.83 | Cc1cc(=O)[nH]c2cc(NC(=O)c3ccc(Cl)cc3Cl)ccc12 |  |  | 9 mm | 
1.61 | Cc1cc(=O)[nH]c2cc(NC(=O)c3ccc(F)cc3)ccc12 | 12 mm | 11 mm |  | 
1.75 | Cc1cc(=O)[nH]c2cc(NC(=O)c3c(Br)cccc3Br)ccc12 | 12 mm | 12 mm |  | 
1.63 | Cc1cc(=O)[nH]c2cc(NC(=O)c3ccc([N+](=O)[O-])cc3)ccc12 |  |  | 11 mm | inhibition zone (IZ) (Pseudomonas aeruginosa [5]): 9 mm
1.82 | Cc1cc(=O)[nH]c2cc(NC(=O)c3c([N+](=O)[O-])cccc3[N+](=O)[O-])ccc12 | 12.5 mm |  | 13 mm | inhibition zone (IZ) (Pseudomonas aeruginosa [5]): 10 mm
1.71 | Cc1ccccc1C(=O)Nc1ccc2c(C)cc(=O)[nH]c2c1 | 12 mm | 10 mm |  | 
1.67 | Cc1ccc(C(=O)Nc2ccc3c(C)cc(=O)[nH]c3c2)cc1 |  |  | 13 mm | inhibition zone (IZ) (Pseudomonas aeruginosa [5]): 10 mm
1.46 | COc1ccc(C(=O)Nc2ccc3c(C)cc(=O)[nH]c3c2)cc1OC | 13 mm | 16 mm | 15 mm | 
1.72 | Cc1cc(=O)[nH]c2cc(NC(=O)c3cccc4ccccc34)ccc12 | 13 mm |  | 11 mm | 
1.69 | Cc1cc(=O)[nH]c2cc(NC(=O)/C=C/c3ccccc3)ccc12 | 11 mm |  | 12 mm | 
1.66 | Cc1cc(=O)[nH]c2cc(NC(=O)c3ccccc3)ccc12 | 12 mm |  |  | inhibition zone (IZ) (Pseudomonas aeruginosa [5]): 11 mm
1.55 | Cc1cc(=O)[nH]c2cc(NC(=O)c3ccccc3Cl)ccc12 | 10.5 mm |  |  | 
1.69 | Cc1cc(=O)[nH]c2cc(NC(=O)c3cccc(Cl)c3)ccc12 |  |  |  | 
1.69 | Cc1cc(=O)[nH]c2cc(NC(=O)c3ccc(Cl)cc3)ccc12 |  |  | 9 mm | 
0.793 | Cc1cc(O)nc2cc(N)ccc12 | 10 mm | 11 mm | 10 mm | inhibition zone (IZ) (Pseudomonas aeruginosa [5]): 11 mm
 | CC1(C)S[C@@H]2[C@H](NC(=O)[C@H](N)c3ccc(O)cc3)C(=O)N2[C@H]1C(=O)O [AMOXICILLIN] |  |  |  | inhibition zone (IZ) (Bacillus subtilis [6]): 34 mm; inhibition zone (IZ) (Staphylococcus aureus [7]): 30 mm; inhibition zone (IZ) (Escherichia coli [8]): 23 mm; inhibition zone (IZ) (Pseudomonas aeruginosa [9]): 26 mm
